Tests used:
Collagenase ColA = target: T1, Collagenase ColA (Bacteria, UniProt P43153); test: Inhibition of collagenase at 100 uM (No inhibition); design: species or system Hathewaya histolytica
T1 sequence (P43153 whole entry): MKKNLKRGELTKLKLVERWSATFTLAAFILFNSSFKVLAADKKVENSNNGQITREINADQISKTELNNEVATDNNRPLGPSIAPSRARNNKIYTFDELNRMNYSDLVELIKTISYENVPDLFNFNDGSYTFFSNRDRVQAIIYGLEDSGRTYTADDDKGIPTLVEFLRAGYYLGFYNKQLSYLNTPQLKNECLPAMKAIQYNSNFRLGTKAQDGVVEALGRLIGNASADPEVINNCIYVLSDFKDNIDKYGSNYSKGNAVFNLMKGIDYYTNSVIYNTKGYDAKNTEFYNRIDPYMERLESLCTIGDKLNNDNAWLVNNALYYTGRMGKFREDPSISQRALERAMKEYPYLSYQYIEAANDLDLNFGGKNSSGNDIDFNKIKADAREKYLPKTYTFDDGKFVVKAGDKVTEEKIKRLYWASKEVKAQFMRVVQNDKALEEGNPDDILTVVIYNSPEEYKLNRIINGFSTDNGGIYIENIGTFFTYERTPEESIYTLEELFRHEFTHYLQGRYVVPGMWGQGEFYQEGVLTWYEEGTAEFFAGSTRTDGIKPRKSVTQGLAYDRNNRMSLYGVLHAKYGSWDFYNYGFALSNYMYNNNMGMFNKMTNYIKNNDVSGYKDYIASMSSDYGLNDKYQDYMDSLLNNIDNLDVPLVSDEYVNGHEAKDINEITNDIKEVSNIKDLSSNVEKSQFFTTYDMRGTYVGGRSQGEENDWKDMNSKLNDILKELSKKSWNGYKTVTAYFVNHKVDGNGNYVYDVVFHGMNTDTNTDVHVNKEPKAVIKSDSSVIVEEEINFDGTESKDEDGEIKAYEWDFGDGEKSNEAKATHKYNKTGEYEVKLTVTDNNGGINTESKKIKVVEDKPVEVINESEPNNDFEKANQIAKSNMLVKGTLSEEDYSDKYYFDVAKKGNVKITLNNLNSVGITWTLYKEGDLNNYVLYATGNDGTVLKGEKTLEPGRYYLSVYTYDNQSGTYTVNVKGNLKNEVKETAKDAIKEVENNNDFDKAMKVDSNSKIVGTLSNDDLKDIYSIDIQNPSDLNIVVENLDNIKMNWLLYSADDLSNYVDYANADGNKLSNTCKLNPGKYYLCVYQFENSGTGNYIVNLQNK

Coagulation factor X = Coagulation factor X (Homo sapiens, UniProt P00742); test: Inhibition of Coagulation factor X at 100 uM; No inhibition
HT-1080 [1] = test: Compound (100 uM) was tested for percent inhibition against adhesion of human HT1080 cells; No inhibition; assay type: functional, cell-based
HeLa [2] = test: Compound (100 uM) was tested for percent inhibition against adhesion of human HeLa cells; No inhibition; assay type: functional, cell-based
Heparanase [3] = target: T2, Heparanase (Homo sapiens, UniProt Q9Y251); test: Inhibitory concentration against heparanase; No inhibition
T2 sequence (Q9Y251 whole entry): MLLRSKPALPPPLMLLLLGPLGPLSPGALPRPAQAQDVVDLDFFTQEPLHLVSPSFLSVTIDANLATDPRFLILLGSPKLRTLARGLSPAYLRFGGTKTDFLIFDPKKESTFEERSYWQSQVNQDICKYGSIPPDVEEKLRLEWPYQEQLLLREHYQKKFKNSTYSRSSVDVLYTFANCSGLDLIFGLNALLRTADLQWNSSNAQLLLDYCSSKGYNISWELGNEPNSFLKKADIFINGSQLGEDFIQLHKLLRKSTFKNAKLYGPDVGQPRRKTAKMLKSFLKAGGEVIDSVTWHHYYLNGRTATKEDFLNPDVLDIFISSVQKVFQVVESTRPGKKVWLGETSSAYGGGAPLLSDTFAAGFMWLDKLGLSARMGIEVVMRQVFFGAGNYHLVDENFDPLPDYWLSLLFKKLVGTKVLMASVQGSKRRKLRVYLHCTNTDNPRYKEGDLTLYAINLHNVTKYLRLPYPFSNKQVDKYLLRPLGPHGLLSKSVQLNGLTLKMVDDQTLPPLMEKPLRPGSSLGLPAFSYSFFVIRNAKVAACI

[4] = target: Matrix metalloproteinase-9 (Homo sapiens, UniProt P14780); test: Inhibition of matrix metalloprotease-9 at 100 uM (inactive)
Serine protease 1 = Serine protease 1 (Homo sapiens, UniProt P07477); test: Inhibitory activity against trypsin at 100 uM; No inhibition
[5] = target: 72 kDa type IV collagenase (Homo sapiens, UniProt P08253); test: Inhibition of matrix metalloprotease-2 at 100 uM (inactive)
Prothrombin = Prothrombin (Homo sapiens, UniProt P00734); test: Compound (100 uM) was tested for inhibitory activity against thrombin; No inhibition
Heparanase [6] = target: T2, Heparanase; test: Compound was tested for inhibitory activity against heparanase
HT-1080 [7] = test: Compound was tested for inhibitory activity against adhesion of human collagen IV/HT1080 cell; assay type: functional, cell-based
Integrin alpha-5/beta-1 [8] = target: T3, Integrin alpha-5/beta-1 (Homo sapiens, UniProt P05556+P08648); test: Inhibition of human A431 cell adhesion to fibronectin; assay type: functional, cell-based, A-431
Integrin alpha-5/beta-1 [9] = target: T3, Integrin alpha-5/beta-1; test: Inhibition of human HT1080 cell adhesion to fibronectin; assay type: functional, cell-based, HT-1080
Integrin alpha-5/beta-1 [10] = target: T3, Integrin alpha-5/beta-1; test: Inhibition of human HeLa cell adhesion to fibronectin; assay type: functional, cell-based
HT-1080 [11] = test: Compound (100 uM) was tested for percent inhibition against adhesion of human HT1080 cells; assay type: functional
HT-1080 [12] = test: Compound was tested for inhibitory activity against growth of human HT1080 cells; assay type: functional, cell-based
HT-1080 [13] = test: Compound was tested for inhibitory activity against invasion of human HT1080 cells; assay type: functional, cell-based
HT-1080 [14] = test: Compound was tested for inhibitory activity against migration of human HT1080 cells; assay type: functional, cell-based
HeLa [15] = test: Compound (100 uM) was tested for percent inhibition against adhesion of human HeLa cells; assay type: functional
HT-1080 [16] = test: Compound was tested for inhibitory activity against adhesion of human laminin/HT1080 cells; assay type: functional, cell-based
HT-1080 [17] = test: Compound was tested for inhibitory activity against adhesion of human Plastic/HT1080 cells; assay type: functional, cell-based

Sequence of Matrix metalloproteinase-9 (P14780 whole entry): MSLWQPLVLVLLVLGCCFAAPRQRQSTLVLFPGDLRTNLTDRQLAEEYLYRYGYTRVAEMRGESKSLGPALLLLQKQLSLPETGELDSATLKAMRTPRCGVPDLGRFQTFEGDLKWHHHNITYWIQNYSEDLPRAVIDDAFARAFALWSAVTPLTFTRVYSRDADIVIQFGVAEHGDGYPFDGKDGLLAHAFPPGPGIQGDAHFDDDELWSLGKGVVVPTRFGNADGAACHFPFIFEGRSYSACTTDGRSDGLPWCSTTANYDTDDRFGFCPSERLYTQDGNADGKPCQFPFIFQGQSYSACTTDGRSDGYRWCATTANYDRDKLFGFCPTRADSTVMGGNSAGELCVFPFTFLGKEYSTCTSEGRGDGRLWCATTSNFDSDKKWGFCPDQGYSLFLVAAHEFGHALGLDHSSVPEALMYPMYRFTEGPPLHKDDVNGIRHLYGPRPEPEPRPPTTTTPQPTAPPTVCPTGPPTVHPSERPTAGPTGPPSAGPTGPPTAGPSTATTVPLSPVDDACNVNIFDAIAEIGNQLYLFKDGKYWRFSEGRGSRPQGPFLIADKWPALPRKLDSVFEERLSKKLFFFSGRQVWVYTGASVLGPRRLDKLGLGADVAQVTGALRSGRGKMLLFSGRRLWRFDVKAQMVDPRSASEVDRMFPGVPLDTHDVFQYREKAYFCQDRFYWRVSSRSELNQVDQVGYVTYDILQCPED
T3 sequence (P05556 21-798 limits assumed): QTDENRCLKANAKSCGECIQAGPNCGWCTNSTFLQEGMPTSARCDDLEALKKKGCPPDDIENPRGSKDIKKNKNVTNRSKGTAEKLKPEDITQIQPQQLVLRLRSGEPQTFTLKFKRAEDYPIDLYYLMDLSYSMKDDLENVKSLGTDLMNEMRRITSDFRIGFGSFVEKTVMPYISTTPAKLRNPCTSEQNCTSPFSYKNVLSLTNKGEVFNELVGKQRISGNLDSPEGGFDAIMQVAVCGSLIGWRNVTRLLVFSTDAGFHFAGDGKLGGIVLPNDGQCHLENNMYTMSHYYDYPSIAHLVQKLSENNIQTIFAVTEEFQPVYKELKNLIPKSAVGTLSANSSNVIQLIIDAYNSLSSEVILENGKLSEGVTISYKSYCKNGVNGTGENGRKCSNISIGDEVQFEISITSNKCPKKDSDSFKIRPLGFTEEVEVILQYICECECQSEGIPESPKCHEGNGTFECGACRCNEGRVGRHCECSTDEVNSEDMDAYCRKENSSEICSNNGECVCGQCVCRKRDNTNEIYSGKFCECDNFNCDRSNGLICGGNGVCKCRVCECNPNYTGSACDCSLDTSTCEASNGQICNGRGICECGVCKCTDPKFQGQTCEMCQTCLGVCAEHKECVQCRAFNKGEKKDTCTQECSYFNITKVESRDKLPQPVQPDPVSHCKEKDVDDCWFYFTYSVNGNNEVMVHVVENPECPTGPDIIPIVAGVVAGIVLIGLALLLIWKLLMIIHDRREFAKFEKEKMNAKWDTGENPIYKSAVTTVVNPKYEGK
T3 sequence (P08648 42-894 limits assumed): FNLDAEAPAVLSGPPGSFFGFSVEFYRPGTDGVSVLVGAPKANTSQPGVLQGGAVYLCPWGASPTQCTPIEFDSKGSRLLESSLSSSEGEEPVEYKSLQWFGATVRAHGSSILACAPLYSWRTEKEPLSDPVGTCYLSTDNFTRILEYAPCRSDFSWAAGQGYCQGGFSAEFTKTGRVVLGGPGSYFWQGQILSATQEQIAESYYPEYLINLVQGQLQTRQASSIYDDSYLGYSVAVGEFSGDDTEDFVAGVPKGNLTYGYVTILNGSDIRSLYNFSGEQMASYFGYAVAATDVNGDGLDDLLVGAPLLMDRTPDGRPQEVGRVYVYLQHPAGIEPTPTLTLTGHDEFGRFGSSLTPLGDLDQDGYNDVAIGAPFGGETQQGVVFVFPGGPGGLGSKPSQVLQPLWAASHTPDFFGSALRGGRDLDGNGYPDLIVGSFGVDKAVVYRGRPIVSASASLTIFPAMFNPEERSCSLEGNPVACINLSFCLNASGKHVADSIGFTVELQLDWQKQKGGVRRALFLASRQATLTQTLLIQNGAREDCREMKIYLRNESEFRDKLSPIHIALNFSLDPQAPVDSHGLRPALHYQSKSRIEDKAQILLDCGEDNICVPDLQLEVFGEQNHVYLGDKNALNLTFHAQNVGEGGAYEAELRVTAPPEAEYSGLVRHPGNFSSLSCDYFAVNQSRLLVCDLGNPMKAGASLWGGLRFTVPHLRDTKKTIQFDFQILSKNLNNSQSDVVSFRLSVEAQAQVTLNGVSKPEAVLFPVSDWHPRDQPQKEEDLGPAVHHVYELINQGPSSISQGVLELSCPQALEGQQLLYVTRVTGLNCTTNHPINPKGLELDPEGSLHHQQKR
T3 sequence (P08648 895-1049 limits assumed): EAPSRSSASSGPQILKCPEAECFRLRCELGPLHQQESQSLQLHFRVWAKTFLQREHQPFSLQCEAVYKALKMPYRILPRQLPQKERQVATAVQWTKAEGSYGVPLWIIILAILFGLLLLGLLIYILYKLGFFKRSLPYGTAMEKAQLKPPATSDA
Sequence of 72 kDa type IV collagenase (P08253 whole entry): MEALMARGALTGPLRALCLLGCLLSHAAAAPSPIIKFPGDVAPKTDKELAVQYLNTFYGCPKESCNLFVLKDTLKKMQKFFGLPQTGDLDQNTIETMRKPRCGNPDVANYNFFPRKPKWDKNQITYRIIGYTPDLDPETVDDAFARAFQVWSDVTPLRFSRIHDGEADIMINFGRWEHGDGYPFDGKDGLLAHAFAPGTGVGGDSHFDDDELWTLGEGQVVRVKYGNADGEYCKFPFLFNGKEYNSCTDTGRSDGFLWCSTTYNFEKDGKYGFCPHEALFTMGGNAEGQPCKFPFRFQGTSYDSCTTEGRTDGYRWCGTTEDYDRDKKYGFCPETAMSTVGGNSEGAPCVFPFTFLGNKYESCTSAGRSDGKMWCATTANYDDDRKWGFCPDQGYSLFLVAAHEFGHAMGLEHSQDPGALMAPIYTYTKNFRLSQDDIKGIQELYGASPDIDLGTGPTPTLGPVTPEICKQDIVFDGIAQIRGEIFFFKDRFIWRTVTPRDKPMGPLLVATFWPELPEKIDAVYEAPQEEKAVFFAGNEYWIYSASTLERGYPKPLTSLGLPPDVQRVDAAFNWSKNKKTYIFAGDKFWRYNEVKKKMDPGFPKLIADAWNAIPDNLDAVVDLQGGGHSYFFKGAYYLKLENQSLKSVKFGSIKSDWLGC
Sequence of Coagulation factor X (P00742 41-179 limits assumed): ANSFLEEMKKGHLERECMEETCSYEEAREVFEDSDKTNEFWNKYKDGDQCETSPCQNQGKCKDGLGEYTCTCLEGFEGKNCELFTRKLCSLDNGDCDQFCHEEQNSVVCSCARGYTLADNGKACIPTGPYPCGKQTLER
Sequence of Coagulation factor X (P00742 235-488 limits assumed): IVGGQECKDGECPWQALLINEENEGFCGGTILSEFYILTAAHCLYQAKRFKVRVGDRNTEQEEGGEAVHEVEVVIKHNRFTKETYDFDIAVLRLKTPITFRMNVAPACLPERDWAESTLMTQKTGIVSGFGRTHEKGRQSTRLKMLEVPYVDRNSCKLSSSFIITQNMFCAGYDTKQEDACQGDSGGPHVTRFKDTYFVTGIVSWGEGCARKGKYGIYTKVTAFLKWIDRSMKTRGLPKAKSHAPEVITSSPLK
Sequence of Serine protease 1 (P07477 whole entry): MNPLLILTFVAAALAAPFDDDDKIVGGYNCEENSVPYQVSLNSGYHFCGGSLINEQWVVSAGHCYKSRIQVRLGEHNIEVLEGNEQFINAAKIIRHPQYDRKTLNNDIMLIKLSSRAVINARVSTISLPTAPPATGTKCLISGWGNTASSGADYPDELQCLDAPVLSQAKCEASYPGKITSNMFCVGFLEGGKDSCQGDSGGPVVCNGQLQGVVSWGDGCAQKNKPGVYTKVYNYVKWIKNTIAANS

Row | Compound | IC50 (Collagenase ColA) | IC50 (Coagulation factor X) | IC50 (HT-1080 [1]) | IC50 (HeLa [2]) | IC50 (Heparanase [3]) | IC50 [4] | IC50 (Serine protease 1) | IC50 [5] | IC50 (Prothrombin) | other results
1 | O=C(O)c1ccc(Sc2ccc(C(=O)c3ccccc3C(=O)O)cc2[N+](=O)[O-])cc1 | Not Active | Not Active | Not Active | Not Active | Not Active | Not Active | Not Active | Not Active | Not Active | –
2 | O=C(O)c1ccccc1C(=O)c1ccc(F)c([N+](=O)[O-])c1 | Not Active | Not Active | Not Active | Not Active | Not Active | Not Active | Not Active | Not Active | Not Active | –
3 | CCNc1ccc(C(=O)c2ccccc2C(=O)O)cc1[N+](=O)[O-] | Not Active | Not Active | Not Active | Not Active | Not Active | Not Active | Not Active | Not Active | Not Active | –
4 | CC(=O)OC(=O)c1ccccc1C(=O)c1ccc(Sc2ccccc2)c([N+](=O)[O-])c1 | Not Active | Not Active | Not Active | Not Active | Not Active | Not Active | Not Active | Not Active | Not Active | –
5 | O=C(O)c1ccccc1C(=O)c1ccc(Sc2ccccc2)c([N+](=O)[O-])c1 | Not Active | Not Active | Not Active | Not Active | Not Active | Not Active | Not Active | Not Active | Not Active | IC50 (Heparanase [6]): 300 µM
6 | O=C(O)c1ccccc1C(=O)c1ccc(F)cc1 | Not Active | Not Active | Not Active | Not Active | Not Active | Not Active | Not Active | Not Active | Not Active | –
7 | O=C(O)c1ccccc1C(=O)c1ccc(Oc2ccccc2)c([N+](=O)[O-])c1 | Not Active | Not Active | Not Active | Not Active | Not Active | Not Active | Not Active | Not Active | Not Active | –
8 | CCSc1ccc(C(=O)c2ccccc2C(=O)O)cc1[N+](=O)[O-] | Not Active | Not Active | Not Active | Not Active | Not Active | Not Active | Not Active | Not Active | Not Active | –
9 | O=C(O)c1ccccc1C(=O)c1ccc(NC2CCCCC2)c([N+](=O)[O-])c1 | Not Active | Not Active | Not Active | Not Active | Not Active | Not Active | Not Active | Not Active | Not Active | –
10 | CC(=O)OC(=O)c1ccccc1C(=O)c1ccc(F)c([N+](=O)[O-])c1 | Not Active | Not Active | – | – | Not Active | Not Active | Not Active | Not Active | Not Active | IC50 (HT-1080 [7]): 43 µM; IC50 (Integrin alpha-5/beta-1 [8]): 8 µM; IC50 (Integrin alpha-5/beta-1 [9]): 7 µM; IC50 (Integrin alpha-5/beta-1 [10]): 16 µM; Inhibition (HT-1080 [11]): 89%; IC50 (HT-1080 [12]): 10 µM; IC50 (HT-1080 [13]): 2 µM; IC50 (HT-1080 [14]): 2 µM; Inhibition (HeLa [15]): 85%; IC50 (HT-1080 [16]): 17 µM; IC50 (HT-1080 [17]): 5 µM
11 | CCOc1ccc(C(=O)c2ccccc2C(=O)O)cc1[N+](=O)[O-] | Not Active | Not Active | Not Active | Not Active | Not Active | Not Active | Not Active | Not Active | Not Active | –
12 | O=C(O)CC(Sc1ccc(C(=O)c2ccccc2C(=O)O)cc1[N+](=O)[O-])C(=O)O (stereo not drawn) | Not Active | Not Active | Not Active | Not Active | Not Active | Not Active | Not Active | Not Active | Not Active | –
